Test results as given in EP0107165A1, “Substituted 9H-8-oxo-pyrimido(2,1-f)purine-2,4-diones, process for their production and pharmaceutical compositions containing them” (SCHERING CORPORATION, priority 1982, dated 1984).

Columns and labels:
RPAR Synovitis = test: Reversed Passive Arthus-Reaction (RPAR) Synovitis technique; assay type: in vivo, male Lewis rats; settings: dosage of 50 mpk, oral, split dose (half one hour before, half three hours after lesion induction); delta synovial weight about 17 hours after lesion induction; Lewis rat
Protocol: The anti-inflammatory potential of the compounds of the present invention may be determined by the Reversed Passive Arthus-Reaction (RPAR) Synovitis technique as set forth below using male Lewis rats (obtained from Charles River Breeding Laboratories) weighing 200-250 g. The potency of the compounds is determined using indo- methacin as the standard. On the basis of the test results, a dosage range of about 0.1 milligrams per kilogram of body weight per day to about 50 milligrams per kilogram of body weight per day in divided doses at about 4 hour intervals is recommended. For the preferred compounds of the invention tested, it is considered that the compounds are effectively non-toxic at the dose- rates indicated for treatment of inflammatory conditions. […]
The following morning (about 17 hours after lesion induction) the rat is killed and both knee joints are exposed. […] Differences in delta synovial weight between lesion controls and drug- treated rats are evaluated for statistical significance with an analysis of variance. Relative potencies are determined with a linear regression analysis. […]

[1] = Ulcerogenicity test (oral administration); assay type: in vivo; settings: dosages as high as 100mpk

CCCCc1c(O)n(Cc2ccccc2)c2nc3c(c(=O)n(C)c(=O)n3C)n2c1=O [B, 9-benzyl-1,3-dimethyl-8-hydroxy-7-(n-butyl)-9H-6-oxo-pyrimido[2,1-f]purine-2,4-dione]
percentage inhibition of inflammation (I) (RPAR Synovitis): 48%

CCCc1c(O)n(Cc2ccccc2)c2nc3c(c(=O)n(C)c(=O)n3C)n2c1=O [A, 9-benzyl-1,3-dimethyl-8-hydroxy-7-n-propyl-9H-6-. oxo-pyrimido[2,1-f]purine-2,4-dione]
percentage inhibition of inflammation (I) (RPAR Synovitis): 46% | ulcerogenic [1]: not to be ulcerogenic
